Results as given in PubChem BioAssay (NCI).
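In this assay, cells in 96-well plates receive the compound at five concentrations for 48 hours. Endpoints are linearly interpolated between the surrounding concentrations. Here, GI50 denotes the concentration required for 50% inhibition of growth. TGI marks complete inhibition of growth.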

Experiments:
Assay in all cases: NCI tumour cell line growth inhibition, 48 h
[1] = tested on: HL-60(TB) leukemia
[2] = tested on: SK-MEL-2 melanoma
[3] = tested on: ACHN renal
[4] = tested on: OVCAR-5 ovarian
[5] = tested on: DU-145 prostate
[6] = tested on: KM12 colon
[7] = tested on: T-47D breast
[8] = tested on: SK-OV-3 ovarian
[9] = tested on: CAKI-1 renal
[10] = tested on: EKVX NSCLC
[11] = tested on: PC-3 prostate
[12] = tested on: SF-295 CNS
[13] = tested on: BT-549 breast
[14] = tested on: SK-MEL-5 melanoma
[15] = tested on: LOX IMVI melanoma
[16] = tested on: SNB-19 CNS
[17] = tested on: UACC-62 melanoma
[18] = tested on: K-562 leukemia
[19] = tested on: UO-31 renal
[20] = tested on: A549 NSCLC
[21] = tested on: NCI-H226 lung
[22] = tested on: TK-10 renal
[23] = tested on: HT29 colon
[24] = tested on: OVCAR-8 ovarian
[25] = tested on: HCT-15 colon
[26] = tested on: MDA-MB-231 breast
[27] = tested on: SK-MEL-28 melanoma
[28] = tested on: SW-620 colon
[29] = tested on: HCT-116 colon
[30] = tested on: RXF 393 renal
[31] = tested on: 786-0 renal
[32] = tested on: MDA-MB-435
[33] = tested on: HS 578T breast
[34] = tested on: NCI-H522 lung
[35] = tested on: SF-268 CNS
[36] = tested on: UACC-257 melanoma
[37] = tested on: SF-539 CNS
[38] = tested on: HOP-62 NSCLC
[39] = tested on: MOLT-4 leukemia
[40] = tested on: COLO 205 colon
[41] = tested on: SNB-75 CNS
[42] = tested on: M14 melanoma
[43] = tested on: SR leukemia
[44] = tested on: A498 renal
[45] = tested on: NCI-H23 lung
[46] = tested on: HOP-92 NSCLC
[47] = tested on: NCI/ADR-RES ovarian
[48] = tested on: RPMI-8226 leukemia
[49] = tested on: NCI-H460 lung
[50] = tested on: MCF7 breast
[51] = tested on: SN12C renal
[52] = tested on: IGROV1 ovarian
[53] = tested on: OVCAR-3 ovarian
[54] = tested on: U251 CNS

Question: With `COc1ccc(-c2ccc(-c3ccc(C(=N)N)cc3)s2)cc1Cl` as the compound, how does the GI50 [1] read?
Answer: 1.91 µM

Question: What about the TGI [1] of the same compound?
Answer: 4.05 µM

Question: And the GI50 [2]?
Answer: 2.05 µM

Question: And the TGI [2]?
Answer: 4.2 µM

Question: And the GI50 [3]?
Answer: 1.62 µM

Question: And the TGI [3]?
Answer: 2.97 µM

Question: And the GI50 [4]?
Answer: 1.55 µM

Question: What about the TGI [4] of the same compound?
Answer: 2.88 µM

Question: What about the GI50 [5] of the same compound?
Answer: 1.7 µM

Question: And the TGI [5]?
Answer: 3.06 µM

Question: What about the GI50 [6] of the same compound?
Answer: 1.75 µM

Question: And the TGI [6]?
Answer: 3.13 µM

Question: And the GI50 [7]?
Answer: 1.85 µM

Question: And the TGI [7]?
Answer: 4.33 µM

Question: What about the GI50 [8] of the same compound?
Answer: 1.98 µM

Question: And the TGI [8]?
Answer: 4.46 µM

Question: `CCOC1Oc2ccccc2C(=O)/C1=C\Nc1ccc(C(=O)O)c(O)c1` (configuration not stated) was tested. Which GI50 [9] did it give?
Answer: 20.9 µM

Question: What about the TGI [9] of the same compound?
Answer: 44 µM

Question: And the GI50 [1]?
Answer: 32.7 µM

Question: What about the TGI [1] of the same compound?
Answer: > 100 µM

Question: And the GI50 [10]?
Answer: 36.7 µM

Question: What about the TGI [10] of the same compound?
Answer: 96.1 µM

Question: And the GI50 [11]?
Answer: 39.2 µM

Question: What about the TGI [11] of the same compound?
Answer: > 100 µM

Question: What about the GI50 [12] of the same compound?
Answer: 21.9 µM

Question: What about the TGI [12] of the same compound?
Answer: 55.4 µM

Question: What about the GI50 [13] of the same compound?
Answer: 26.4 µM

Question: What about the TGI [13] of the same compound?
Answer: 87.5 µM

Question: And the GI50 [14]?
Answer: 18.6 µM

Question: What about the TGI [14] of the same compound?
Answer: 37.4 µM

Question: What about the GI50 [15] of the same compound?
Answer: 18.2 µM

Question: And the TGI [15]?
Answer: 46.8 µM

Question: What about the GI50 [16] of the same compound?
Answer: 28.6 µM

Question: And the TGI [16]?
Answer: 94.4 µM

Question: What about the GI50 [17] of the same compound?
Answer: 19.6 µM

Question: What about the TGI [17] of the same compound?
Answer: 43.5 µM

Question: And the GI50 [18]?
Answer: 36.4 µM

Question: And the TGI [18]?
Answer: > 100 µM

Question: And the GI50 [19]?
Answer: 40.2 µM

Question: And the TGI [19]?
Answer: > 100 µM

Question: And the GI50 [2]?
Answer: 46.7 µM

Question: And the TGI [2]?
Answer: > 100 µM

Question: And the GI50 [20]?
Answer: > 100 µM

Question: And the TGI [20]?
Answer: > 100 µM

Question: What about the GI50 [21] of the same compound?
Answer: 28.1 µM

Question: And the TGI [21]?
Answer: 80.1 µM

Question: What about the GI50 [22] of the same compound?
Answer: 22.8 µM

Question: And the TGI [22]?
Answer: 61.3 µM

Question: What about the GI50 [23] of the same compound?
Answer: 28.7 µM

Question: And the TGI [23]?
Answer: 72.7 µM

Question: What about the GI50 [24] of the same compound?
Answer: 19.3 µM

Question: And the TGI [24]?
Answer: 54 µM

Question: What about the GI50 [25] of the same compound?
Answer: 16.4 µM

Question: And the TGI [25]?
Answer: 45.9 µM

Question: What about the GI50 [26] of the same compound?
Answer: 14 µM

Question: What about the TGI [26] of the same compound?
Answer: 31.2 µM

Question: And the GI50 [27]?
Answer: 23.9 µM

Question: What about the TGI [27] of the same compound?
Answer: 65.9 µM

Question: And the GI50 [28]?
Answer: 30.8 µM

Question: And the TGI [28]?
Answer: > 100 µM

Question: What about the GI50 [3] of the same compound?
Answer: 18.3 µM

Question: And the TGI [3]?
Answer: 44.3 µM

Question: And the GI50 [4]?
Answer: 43.2 µM

Question: What about the TGI [4] of the same compound?
Answer: > 100 µM

Question: And the GI50 [5]?
Answer: 34.1 µM

Question: And the TGI [5]?
Answer: > 100 µM

Question: What about the GI50 [29] of the same compound?
Answer: 15.7 µM

Question: And the TGI [29]?
Answer: 35.1 µM

Question: What about the GI50 [30] of the same compound?
Answer: 16.9 µM

Question: And the TGI [30]?
Answer: 41.9 µM

Question: What about the GI50 [31] of the same compound?
Answer: 30.1 µM

Question: And the TGI [31]?
Answer: > 100 µM

Question: What about the GI50 [6] of the same compound?
Answer: 26.3 µM

Question: And the TGI [6]?
Answer: 65 µM

Question: And the GI50 [32]?
Answer: 20.4 µM

Question: What about the TGI [32] of the same compound?
Answer: 44.4 µM

Question: What about the GI50 [33] of the same compound?
Answer: 35 µM

Question: And the TGI [33]?
Answer: 90 µM

Question: And the GI50 [34]?
Answer: > 100 µM

Question: And the TGI [34]?
Answer: > 100 µM

Question: What about the GI50 [35] of the same compound?
Answer: 26.1 µM

Question: And the TGI [35]?
Answer: 80.8 µM

Question: What about the GI50 [36] of the same compound?
Answer: 19.4 µM

Question: And the TGI [36]?
Answer: 44.6 µM

Question: And the GI50 [37]?
Answer: 25.5 µM

Question: And the TGI [37]?
Answer: 59.5 µM

Question: And the GI50 [38]?
Answer: 32.4 µM

Question: What about the TGI [38] of the same compound?
Answer: > 100 µM

Question: What about the GI50 [39] of the same compound?
Answer: > 100 µM

Question: What about the TGI [39] of the same compound?
Answer: > 100 µM

Question: And the GI50 [40]?
Answer: 23.9 µM

Question: And the TGI [40]?
Answer: 56.5 µM

Question: And the GI50 [41]?
Answer: 20.3 µM

Question: And the TGI [41]?
Answer: 58.3 µM

Question: What about the GI50 [42] of the same compound?
Answer: 17.3 µM

Question: What about the TGI [42] of the same compound?
Answer: 36 µM

Question: What about the GI50 [43] of the same compound?
Answer: 39.4 µM

Question: And the TGI [43]?
Answer: > 100 µM

Question: And the GI50 [44]?
Answer: 30.6 µM

Question: And the TGI [44]?
Answer: 73.7 µM

Question: What about the GI50 [45] of the same compound?
Answer: 21.4 µM

Question: And the TGI [45]?
Answer: 63.1 µM

Question: And the GI50 [46]?
Answer: 19.6 µM

Question: And the TGI [46]?
Answer: 60.6 µM

Question: What about the GI50 [47] of the same compound?
Answer: 20.5 µM

Question: What about the TGI [47] of the same compound?
Answer: 62 µM

Question: What about the GI50 [48] of the same compound?
Answer: 20 µM

Question: And the TGI [48]?
Answer: > 100 µM

Question: And the GI50 [49]?
Answer: 38.9 µM

Question: And the TGI [49]?
Answer: > 100 µM

Question: And the GI50 [50]?
Answer: 29.9 µM

Question: What about the TGI [50] of the same compound?
Answer: > 100 µM

Question: And the GI50 [8]?
Answer: 21.7 µM

Question: What about the TGI [8] of the same compound?
Answer: 67.6 µM

Question: And the GI50 [51]?
Answer: 16.5 µM

Question: And the TGI [51]?
Answer: 36.7 µM

Question: What about the GI50 [52] of the same compound?
Answer: 43.9 µM

Question: And the TGI [52]?
Answer: > 100 µM

Question: What about the GI50 [53] of the same compound?
Answer: 25.2 µM

Question: And the TGI [53]?
Answer: 56.3 µM

Question: And the GI50 [54]?
Answer: 19.1 µM

Question: What about the TGI [54] of the same compound?
Answer: 46.5 µM
